Results on 2 compounds are retold here after US20030144213A1, “Combination therapy of angiotensin converting enzyme inhibitor, side-effect reduced amount of aldosterone antagonist and diuretic for treatment of cardiovascular disease” (G.D. Searle & Co., priority 1996, published 2003).

In series [1] the test system is myocardial fibrosis in animal models. The following applies: cited from earlier work.
Another series relates to hypertensive-rat cohort. Particulars: sub-cutaneously; hypertensive rats; cited from earlier work.
In series [2] the test system is patients afflicted with congestive heart failure. The following applies: coadministered with an ACE inhibitor; cited from earlier work.
Series [3] has as its system patients with symptomatic heart failure. Put plainly: Spironolactone dose-ranging clinical trial (12 weeks, added to ACE inhibitor, loop diuretic, optional digitalis).
A further series has as its system hypertensive patients. The following applies: cited from earlier work.

On to `CC(=O)S[C@@H]1CC2=CC(=O)CC[C@]2(C)[C@H]2CC[C@@]3(C)[C@@H](CC[C@@]34CCC(=O)O4)[C@H]12` [Spironolactone, 17-hydroxy-7α-mercapto-3-oxo-17α-pregn-4-ene-21-carboxylic acid γ-lactone acetate], for which the Myocardial fibrosis entry in series [1] is on record as “prevents myocardial fibrosis in animal models”. The Fibrosis result in the series on hypertensive-rat cohort is “prevent fibrosis in the hypertensive-rat cohort”. For the same compound, the “Patients in whom highly effective” value in series [2] is 13 of 16. For the same compound, the “Mean systolic and diastolic blood pressure (standing and supine)” value in series [3] (25 mg, 50 mg and 75 mg groups, all visits) is “decreases in mean systolic and diastolic blood pressure”. Also, in series [3] (75 mg dose group, Day 9 and Week 4), the “Change from baseline in body weight” value is on record as “more weight loss than other patients”. For the same compound, the “Change from baseline in PRA, dose-response” value in series [3] (Day 9, Week 4 and Week 12 (P≦0.001)) is “higher doses of spironolactone associated with greater increases in PRA”. Also, in series [3] (Day 9 and Week 4 (p≦0.048), not at later visits), the “Change from baseline in serum magnesium” value is “statistically significant dose-response”. In series [3] (Week 4 (p-value=0.045)), the “Change from baseline in supine pulse, dose response” value is “greater decreases in pulse in the supine position at higher doses”. The “Hematocrit and hemoglobin vs placebo” value in series [3] (Week 12 (p=0.002; 0.005)) was “lower levels for the active treatment groups”. Also, the “Urinary aldosterone excretion, dose response” value in series [3] (Week 12 vs baseline (p=0.002)) is recorded as “Greater increases were seen at higher doses of spironolactone”. Also, in series [3] (all active treatments, Day 9, Week 4, Week 12), the “N-Terminal Atrial Natriuretic Factor (ANF) change” value is reported as “decreases from baseline at all treatment visits”. The “Deaths during the drug treatment period” value in series [3] (all doses, 12 weeks) is given as “No deaths”. The “Change from baseline in serum potassium, dose-response” value in series [3] (all treatment period visits (p<0.001)) is “Higher doses of spironolactone were associated with larger increases in potassium”. The “Hyperkalemia adverse event, dose-response of incidence” value in series [3] (p=0.001) was “clear dose-response in term of incidence”. Moreover, the “Patients who died within 30 days after the study was completed” value in series [3] (previously at the 50 mg dose) is listed as “Three”. Moreover, in series [3] (vs placebo, not statistically significant), the “NYHA Class improvement” value is “trend toward improvement”.
With `C[C@H](CS)C(=O)N1CCC[C@H]1C(=O)O` [Captopril, captopril], the “Plasma aldosterone despite continued ACE inhibition” value in the series with hypertensive patients is “gradual return of plasma aldosterone to baseline levels”. The “Likelihood of hyperkalemia on captopril vs another ACE-I” value in series [3] (background ACE-I) is given as “about one-third as likely to develop hyperkalemia”.
